# Experiments:
# tobacco BY-2 cells [1] = test: cDNA-AFLP transcript profiling of jasmonate-elicited BY-2 cells; assay type: cell-based, Nicotiana tabacum; settings: 50 μM methyl jasmonate vs DMSO-treated cells, approximately 20,000 tags analyzed
# Experimental: Total RNA was prepared by LiCl precipitation (Sambrook, 1989). Starting from 5 μg total RNA, first-strand cDNA was synthesized by reverse transcription with a biotinylated oligo-dT25 primer (Genset, Paris, France) and Superscript II (Life Technologies, Gaithersburg, Md.). Second-strand synthesis was performed by strand displacement with Escherichia coli ligase (Life Technologies), DNA polymerase I (USB, Cleveland, Ohio) and RNAse-H (USB).
# 500 nanograms of double-stranded cDNA was used for AFLP analysis as described (Vos et al., 1995; Bachem et al., 1996) with modifications. The restriction enzymes used were BstYI and MseI (Biolabs) and the digestion was performed in two separate steps. […]
# Scanned gel images were quantitatively analyzed using the AFLP QuantarPro image analysis software (Keygene N. V., Wageningen, N L). This software was designed for accurate lane definition, fragment detection, and quantification of band intensities. All visible AFLP fragments were scored and individual band intensities in each lane were measured. […] The correction factors were calculated based on constant bands throughout the time course. […] A coefficient of variation (CV) was calculated by dividing […]. […]
# NsPMT2 promoter = NsPMT2 promoter EGFP-GUS reporter in transgenic BY-2 cell line 7 (GUS activity); assay type: cell-based, Nicotiana sylvestris
# Excerpt: The PMT gene encodes the enzyme putrescine N-methyltransferase, catalysing the first committed step in the production of nicotinic alkaloids. Transcripts of Nicotiana sp. PMT genes are reported to be up regulated by methyl jasmonate. […] We have applied this knowledge and constructed a new reporter construct, called pHGWFS7-ppmt2, harbouring a EGFP-GUS fusion reporter gene (in Gateway® vector pHGWFS7; Karimi et al., Trends Plant Sci. 2002, 7(5):193-195), driven by the NsPMT2 promoter. To this end, primers were designed for the Adapter attB PCR protocol (InVitroGen) to amplify the NsPMT2 5′flanking region covering nucleotides −1713 to +3 (Table 3).
# The pHGWFS7-ppmt2 construct was subsequently introduced in the ternary Agrobacterium tumefaciens transformation system, LBA4404.pBBR1-MCS-5.virGN54D (van der Fits et al., Plant Mol. Biol. 2000, 43(4):495-502), allowing efficient transformation of tobacco BY-2 cell cultures. Different independent transgenic lines were established and the jasmonate inducibility of the promoter in these transgenic BY-2 cells was confirmed (Table 4).
# To illustrate the potential of this approach, BY-2-pmt2 cell line 7 was double transformed with the pK7WGD2-C330 construct, harbouring the MJM tag with SEQ ID No 148, an AP2-domain transcription factor encoding gene (also designated as C330 in this application), driven by the constitutive p35S promoter.
# [2] = tested on: BY-2 reporter cell line (line 7); test: Nicotine alkaloid content of BY-2 reporter cell line super-transformed with C330; assay type: cell-based, Nicotiana tabacum; settings: line 7 + C330 vector, −2,4D + MeJA
# Experimental: In a next step, we evaluated if there was a correlation between the GUS-activity in the BY-2 reporter cell line and nicotine alkaloid accumulation. […] Measurements in tables 6A and 6B were carried out in the presence or absence of synthetic auxins. “−2,4 D” means in the absence of dichlorophenoxy-acetic acid. “NAA” means in the presence of alfa-naphtalene-acetic acid. “DW” means dry weight, “MeJA” is with the addition of the elicitor methyl jasmonate, “DMSO” means with the addition of dimethylsulfoxide instead of MeJA.
# (§1) Nicotiana tabacum BY-2 cells were cultured in modified Linsmaier-Skoog (LS) medium (Linsmaier & Skoog, 1965), as described by Nagata & Kumagai (1999). First, the growth curve of BY-2 cell culture was determined (FIG. 2) and the late exponential phase was used in elicitation experiments. Since the ability of high auxin concentration to inhibit the biosynthesis of nicotine is well known (Hibi et al., 1994; Ishikawa, et al., 1994), the six-day-old culture was prior elicitation washed and diluted 10-fold with fresh hormone free medium. After 12 hours, the cells were treated with methyl jasmonate (MeJA). MeJA (cis-form, Duchefa M0918) dissolved in dimethyl sulfoxide (DMSO) and was added to the culture medium at a final concentration of 50 μM. Same amount of DMSO alone served as a control. Samples for cDNA-AFLP analysis were taken at 0, 1, 2, 3, 4, 5, 6, 7, 8, 9, 10, 11, 12, 13, 14, 15, 16, 18, 20, 24, 36, 48, and 98 hours after jasmonate addition or at 0, 2, 4, 6, 8, 10, 12, 14, 16, 24, 36, 48, and 98 hours after DMSO addition, respectively. For alkaloid analysis, the samples were taken at 0, 12, 14, 24, 48 and 98 hours. Three replicate shake flasks pooled together yielded the total culture volume of 75 ml. After filtering (Miracloth) under vacuum the cells were lyophilized. Lyophilized cell samples were extracted for GC-MS analysis by a modified method described by Furuya et al. (1971). Cells were weighed and 25 μg of internal standard (5α-cholestan) was added. The samples were made alkaline with ammonia (10% (v/v), 1 ml) and water (2 ml) was added. Alkaloids were extracted by vortexing with 2 ml of dicloromethane. After 30 min the samples were centrifuged (2000 rpm, 10 min) and the lower organic layer was separated and transferred into glass vials. The samples were concentrated to 50 μl and 3 μl aliquots were injected to GC-MS. In some cases (for derivatization of free fatty acids and more polar compounds) the samples were silylated prior to GC-MS analysis. After evaporation to dryness, 25 μl of dichloromethane was added and silylation was performed by N-methyl-N-(trimethylsilyl)-trifluoro-acetamide (Pierce, Rockford, USA) at 120° C. for 20 min.
# tobacco BY-2 cells [3] = test: Nicotine alkaloid accumulation in methyl jasmonate elicited BY-2 cells (GC-MS); assay type: cell-based, Nicotiana tabacum
# Experimental: as §1
compound,measurement,setting,value
"CC/C=C\CC1C(=O)CCC1CC(=O)OC (centres unmarked) [MeJA, methyl jasmonate]",differential transcript tags,tobacco BY-2 cells [1],591
same,GUS activity,"NsPMT2 promoter; BY-2 cell line 7, +MeJA, 0 h (Table 4)",0.8 ± 1.0 units/mg protein/minute
same,GUS activity,"NsPMT2 promoter; BY-2 cell line 7, +MeJA, 4 h (Table 4)",2.0 ± 0.3 units/mg protein/minute
same,GUS activity,"NsPMT2 promoter; BY-2 cell line 7, +MeJA, 8 h (Table 4)",6.4 ± 0.3 units/mg protein/minute
same,GUS activity,"NsPMT2 promoter; BY-2 cell line 7, +MeJA, 14 h (Table 4)",29.1 ± 1.9 units/mg protein/minute
same,GUS activity,"NsPMT2 promoter; BY-2 cell line 7, +MeJA, 24 h (Table 4)",92.2 ± 6.4 units/mg protein/minute
same,GUS activity,"NsPMT2 promoter; BY-2 line 7, +MeJA, 0 h (Table 5)",0.0 ± 0.0 units/mg protein/minute
same,GUS activity,"NsPMT2 promoter; BY-2 line 7, +MeJA, 24 h (Table 5)",399.0 ± 56.4 units/mg protein/minute
same,GUS activity,"NsPMT2 promoter; BY-2 line 7, +MeJA, 48 h (Table 5)",663.0 ± 33.6 units/mg protein/minute
same,GUS activity,"NsPMT2 promoter; BY-2 line 7-C330, +MeJA, 0 h",1.0 ± 0.1 units/mg protein/minute
same,GUS activity,"NsPMT2 promoter; BY-2 line 7-C330, +MeJA, 24 h",276.7 ± 55.9 units/mg protein/minute
same,GUS activity,"NsPMT2 promoter; BY-2 line 7-C330, +MeJA, 48 h",347.8 ± 2.0 units/mg protein/minute
same,Anatabine,[2]; 0 h,0.038 mg/g DW
same,Nicotine,[2]; 0 h,0.008 mg/g DW
same,Anabasine,[2]; 24 h,0.099 Mg/g DW
same,Anatabine,[2]; 24 h,2.065 mg/g DW
same,Nicotine,[2]; 24 h,0.271 mg/g DW
same,Anabasine,[2]; 48 h,0.297 Mg/g DW
same,Anatabine,[2]; 48 h,3.541 mg/g DW
same,Nicotine,[2]; 48 h,0.283 mg/g DW
same,"nicotine, anabasine, anatalline and anatabine content",tobacco BY-2 cells [3]; BY-2 cells elicited vs control samples,marked increase
same,highest concentration of anatabine,"tobacco BY-2 cells [3]; BY-2 cells, 50 μM MeJA",800 µg/g (d.w.)
same,maximum concentration of nicotine relative to anatabine (dry weight basis),"tobacco BY-2 cells [3]; BY-2 cells, 50 μM MeJA",4%
same,start of anatabine accumulation after elicitation,"tobacco BY-2 cells [3]; BY-2 cells, 50 μM MeJA",24 h
same,start of nicotine accumulation after elicitation,"tobacco BY-2 cells [3]; BY-2 cells, 50 μM MeJA",14 h
same,time after which anabasine and two anatalline isomers increased,"tobacco BY-2 cells [3]; BY-2 cells, 50 μM MeJA",48 h

# Source: patent US20060041962A1, “Genes and uses thereof to modulate secondary metabolite biosynthesis” (priority 2002, published 2006)
